Source: patent US9526720B2, “Modulators of hepatic lipoprotein metabolism” (The Broad Institute, Inc., priority 2012, dated 2016)
Where two headings read alike, the source gives them in different places.

Legend:
[1] = system: LDLR; assay: qPCR LDLR expression in HepG2 cells; format: cell-based, human; settings: Homo sapiens, HepG2, 6 h; read-out: qPCR 6Hr (EC50 uM) LDLR up-regulation
Protocol: (§1) In the primary screen, HepG2 cells were plated in 384-well plates at 2000 cells per well and incubated for 20 hours with each compound in duplicate at 10 microM concentration. Then RNA was isolated, reverse-transcribed to cDNA, and stored at −80° C. Expression levels of TRIB1 and other target genes, such as SORT1 and PCSK9, were determined by quantitative PCR. Relative gene expression level was normalized to expression of the housekeeping gene, GAPDH. A “hit” was defined as those compounds that caused a greater than 2-fold increase in relative target gene expression when normalized to GAPDH expression, compared to DMSO-treated control. Using these criteria, 130 hits were identified for TRIB1 (0.8% hit rate).
(§2) Further analysis of the expression levels of various proteins in the cholesterol and triglyceride biosynthetic pathways in response to TRIB1 inducer treatment was performed. In particular, transcript levels of additional lipoprotein metabolism pathway proteins SCAP, SREBF1, SREBF2, HMGCR, HMGCS, SCD1, FASN and MTTP were assessed by qPCR, along with TRIB1, LDLR, and PCSK9. The gene expression profile for the same subset of genes was also assessed after treatment with the statin atorvastatin (Lipitor), commonly used in therapy for hypercholesterolemia and other cardiovascular diseases.
(§3) The kinetics of the modulation of TRIB1, LDLR, PCSK9 and MTTP gene expression after treatment by select TRIB1 inducer compounds was monitored by qPCR analysis (FIG. 4). RNA was extracted from cells at various timepoints over 28 hours of treatment (0, 2, 4, 6, 8, 24, 28 hours). Specifically, compounds 12a and 14a induced transcriptional responses over time similar to those produced by berberine, a plant alkaloid used in Chinese medicine. […] Both compound 12a and compound 14a induce TRIB1 and LDLR and repress PCSK9 and MTTP expression with similar kinetics and similar fold change as berberine Importantly, both compounds induce these gene expression changes at much lower concentrations than berberine. […] This increased potency indicates the potential therapeutic efficacy of such compounds for treatment of cardiovascular diseases, particularly hypercholesterolemia and related conditions.

[2] = system: LDLR; assay: ELISA of LDLR protein in HepG2 cells; format: cell-based, human; settings: Homo sapiens, HepG2, 24 h; read-out: ELISA 24 Hr (EC50 uM) LDLR increase
Protocol: (§4) Additional secondary assays were performed in HepG2 cells to further characterize the cellular response to treatment with select confirmed TRIB1 inducer hits. The results of the ELISA, CTG, and qPCR secondary assays are summarized in Table B. For all secondary assays, the experiments were performed using powders of freshly purified compounds.
(§5) To further characterize the relationship of TRIB1 induction and PCSK9 reduction, ELISAs were performed to measure the levels of secreted ApoB, PCSK9, and LDLR. […] As predicted treatment with TRIB1 inducer hits caused a decrease in ApoB levels detected by ELISA. In parallel effort, 3200 BIOA and NATP compounds were screened for PCSK9 expression inhibitors. Hits were defined as inducing greater than 3-fold downregulation of PCSK9, and 3.8% of the screened compounds were confirmed as hits. […] In further experiments, a strong correlation was confirmed between TRIB1 induction and PCSK9 repression in DOS Collection hits. ELISA analysis confirmed that treatment with TRIB1 inducers reduced the PCSK9 protein levels. LDLR protein levels were also analyzed by ELISA to determine whether compounds that modulate both TRIB1 and PCSK9 had any effect on LDLR protein levels.

[3] = system: ApoB; assay: ELISA of secreted ApoB in HepG2 cells; format: cell-based, human; parameters: key to ELISA 24 Hr (EC50 uM) ApoB decrease: A: EC50 between 0.0000001 μM≦0.5 μM; B: EC50 between 0.51 μM≦1.0 μM; EC50 between 1.1 μM≦2.0 μM; D: EC50 between 2.1 μM≦5.0 μM; EC50 between 5.1 μM≦10 μM; F: EC50>10 μM; NC: No change; settings: for EC50: Homo sapiens, HepG2, 24 h, read-out: ELISA 24 Hr (EC50 uM) ApoB decrease
Protocol: as §4, §5

[4] = system: TRIB1; assay: qPCR TRIB1 expression in HepG2 cells; format: cell-based; settings: Homo sapiens
[5] = system: PCSK9; assay: ELISA of secreted PCSK9 protein in HepG2 cells; format: cell-based, human; settings: Homo sapiens, HepG2, 24 h; read-out: ELISA 24 Hr (EC50 uM) PCSK9 decrease
Protocol: as §4, §5

[6] = system: PCSK9; assay: qPCR PCSK9 expression in HepG2 cells; format: cell-based, human; settings: Homo sapiens, HepG2, 24 h; read-out: qPCR 24 Hr (EC50 uM) PCSK9 down-regulation
Protocol: as §1, §2, §3

[7] = HepG2, 6 h, read-out: qPCR 6Hr (EC50 uM) TRIB1 up-regulation
[8] = HepG2, induction of TRIB1 and LDLR transcript levels, read-out: half maximal effective concentration (EC50)

SMILES | EC50 [1] [µM] | EC50 [2] [µM] | EC50 [3] [µM] | EC50 [4, 7] [µM] | EC50 [5] [µM] | EC50 [6] [µM] | EC50 [4, 8] [µM] | ELISA 24 Hr (EC50 uM) ApoB decrease ([3]; 24 Hr)
CN(C)C(=O)c1ccc(-c2ccc([C@H]3[C@@H](C#N)N(C(=O)C4CCCCC4)[C@H]3CO)cc2)cc1 [Compound 17a] | 0.51 to 1 | 1.1 to 2 |  | 0.51 to 1 |  |  | < 1 | 
CCCNC(=O)N1[C@H](C#N)[C@H](c2ccc(-c3cccnc3)cc2)[C@@H]1CO [Compound 23a] | 2.1 to 5 | 0.51 to 1 |  | 2.1 to 5 | 1.1 to 2 | 1.1 to 2 |  | NC
COCC(=O)Nc1ccc2c(c1)C(=O)N(C)[C@H]1CC[C@@H](CC(=O)NC3Cc4ccccc4C3)O[C@H]1CO2 [Compound 16a] |  |  |  |  |  |  | < 1 | 

More lines, now with the values ahead:

EC50 [1] [µM] | EC50 [2] [µM] | EC50 [3] [µM] | EC50 [4, 7] [µM] | EC50 [5] [µM] | EC50 [6] [µM] | EC50 [4, 8] [µM] | ELISA 24 Hr (EC50 uM) ApoB decrease ([3]; 24 Hr) | SMILES
1.1 to 2 | 2.1 to 5 | 0.51 to 1 | 1.1 to 2 | 0.51 to 1 | 0.51 to 1 |  |  | CN(C)C(=O)c1ccc(-c2ccc([C@H]3[C@@H](C#N)N(C(=O)C4CCC4)[C@H]3CO)cc2)cc1 [Compound 18a]
 |  |  |  |  |  | < 1 |  | CN1C(=O)c2cc(NC(=O)Nc3ccccc3F)ccc2OC[C@@H]2O[C@H](CC(=O)NCc3ccc(-c4ccccc4)cc3)CC[C@@H]21 [Compound 15a]
2.1 to 5 | 1.1 to 2 | > 10 | 2.1 to 5 | 1.1 to 2 | 0.51 to 1 |  |  | N#C[C@H]1[C@H](c2ccc(-c3cccc(F)c3)cc2)[C@@H](CO)N1C(=O)NC1CCCC1 [Compound 20a]
5.1 to 10 | 5.1 to 10 | > 10 | 2.1 to 5 | 1.1 to 2 | 0.51 to 1 |  |  | N#C[C@@H]1[C@H](c2ccc(-c3ccccc3F)cc2)[C@H](CO)N1C(=O)C1CCC1 [Compound 21a]
